Measured values published in BindingDB's records for patent WO2022129953 (HEPTARES THERAPEUTICS LIMITED, 2022).
pIC50: −log10 of the molar value. “And” between values parts separate entries of the source, which are not always exact repeats. Equal values may be shown once.

Molecular target: Replicase polyprotein 1ab (Severe acute respiratory syndrome coronavirus 2, UniProt P0DTD1)
Assay: SARS-CoV-2 Mpro enzyme assay
Protocol: The activity of SARS-Cov-2 Mpro was determined in a Fluorescence Resonance Energy Transfer (FRET)-based enzymatic assay using FRET Substrate Dabcyl-KTSAVLQSGFRKM-E(Edans)-Amide. In brief, […] of test compounds (concentrations ranging from […]) was preincubated with […] of 20 nM (final concentration) Mpro enzyme for 30 min at 30 °C in an assay buffer containing 20 mM HEPES, 120 mM NaCI, 0.4 mM EDTA, and 4 mM DTT and 20% glycerol. Reaction was initiated by addition of 10 pL of […] (final concentration) of FRET substrate (Dabcyl-KTSAVLQSGFRKM-E (Edans)-Amide). The reaction was incubated for 1 h and the resulting fluorescent intensity was measured at Ex=360 nm/Em=490 nm at 30 °C using a SPARK 20M plate reader (Tecan). Boceprevir was used a reference standard compound. pICso and pKi were determined using 4PL GraphPad Prism and data were represented as a mean n=2± SD.

Compound	pIC50
CCNC(=O)C(=O)C(C[C@@H]1CCNC1=O)NC(=O)[C@H](CC(C)(C)C)NC(=O)/C=C/c1ccc(Cl)cc1F (stereo partly specified) [WO2022129953, Example 23]	7.89
NC(=O)C(=O)C(C[C@@H]1CCNC1=O)NC(=O)[C@H](CC1CC1)NC(=O)/C=C/c1ccc(Cl)cc1Cl (stereo partly specified) [WO2022129953, Example 20]	7.00
CC(C)(C)C[C@H](NC(=O)/C=C/c1ccc(Cl)cc1Cl)C(=O)NC(C[C@@H]1CCNC1=O)C(=O)C(=O)C#N (stereo partly specified) [WO2022129953, Example 9]	6.40
NC(=O)C(=O)C(C[C@@H]1CCNC1=O)NC(=O)[C@H](CC1CC1)NC(=O)/C=C/c1ccccc1 (stereo partly specified) [WO2022129953, Example 2]	7.70
CC(C)(C)NC(=O)C(=O)C(CC1CCNC1=O)NC(=O)[C@H](CC1CC1)NC(=O)/C=C/c1ccc(Cl)cc1F (stereo partly specified) [WO2022129953, Example 5]	6.30
CC(C)(C)C[C@H](NC(=O)C[C@@H](c1ccccc1)C(F)(F)F)C(=O)NC(C[C@@H]1CCNC1=O)C(=O)C(=O)NC1CC1 (stereo partly specified) [WO2022129953, Example 16]	7.70
CC[C@H](CC(=O)N[C@@H](CC1CC1)C(=O)NC(C[C@@H]1CCNC1=O)C(=O)C(=O)NC1CC1)c1ccccc1 (stereo partly specified) [WO2022129953, Example 33]	7.60
C[C@@H](CC(=O)N[C@@H](CC(C)(C)C)C(=O)NC(C[C@@H]1CCNC1=O)C(=O)C(=O)NC1CC1)c1ccccc1 (stereo partly specified) [WO2022129953, Example 12]	7.80
NC(=O)C(=O)C(C[C@@H]1CCNC1=O)NC(=O)[C@H](CC1CC1)NC(=O)OCc1ccccc1 (stereo partly specified) [WO2022129953, Example 3]	7.60
C[C@H](CC(=O)N[C@@H](CC(C)(C)C)C(=O)NC(C[C@@H]1CCNC1=O)C(=O)C(=O)NC1CC1)c1ccccc1 (stereo partly specified) [WO2022129953, Example 13]	7.80
O=C(N[C@@H](CC1CC1)C(=O)NC(C[C@@H]1CCNC1=O)C(=O)C(=O)NC1CC1)OCc1ccccc1 (stereo partly specified) [WO2022129953, Example 29]	7.80
O=C(/C=C/c1ccc(Cl)cc1Cl)N[C@@H](CC1CC1)C(=O)NC(C[C@@H]1CCNC1=O)C(=O)C(=O)NC1CC1 (stereo partly specified) [WO2022129953, Example 25]	8.00
O=C(/C=C/c1ccc(Cl)cc1F)N[C@@H](CC1CCC1)C(=O)NC(C[C@@H]1CCNC1=O)C(=O)C(=O)NC1CC1 (stereo partly specified) [WO2022129953, Example 31]	7.60
CC(C)(C)C[C@H](NC(=O)/C=C/c1ccc(Cl)cc1F)C(=O)NC(C[C@@H]1CCNC1=O)C(=O)C(N)=O (stereo partly specified) [WO2022129953, Example 22]	8.20
NC(=O)C(=O)C(C[C@@H]1CCNC1=O)NC(=O)[C@H](CC1CC1)NC(=O)/C=C/c1ccc(Cl)cc1F (stereo partly specified) [WO2022129953, Example 1]	7.89
CC[C@@H](CC(=O)N[C@@H](CC1CC1)C(=O)NC(C[C@@H]1CCNC1=O)C(=O)C(=O)NC1CC1)c1ccccc1 (stereo partly specified) [WO2022129953, Example 32]	7.89

Compound	pIC50
CC(C)(C)C[C@H](NC(=O)/C=C/c1ccc(Cl)cc1F)C(=O)NC(C[C@@H]1CCNC1=O)C(=O)C(=O)NC1CC1 (stereo partly specified) [WO2022129953, Example 11]	8.10
CC[C@H](CC(=O)N[C@@H](CC(C)(C)C)C(=O)NC(C[C@@H]1CCNC1=O)C(=O)C(=O)NC1CC1)c1ccccc1 (stereo partly specified) [WO2022129953, Example 15]	8.00
NC(=O)C(=O)C(CC1CCCC1)NC(=O)[C@H](CC1CC1)NC(=O)/C=C/c1ccccc1 (stereo partly specified) [WO2022129953, Example 7]	5.10
NC(=O)C(=O)C(CC1CC1)NC(=O)[C@H](CC1CC1)NC(=O)/C=C/c1ccccc1 (stereo partly specified) [WO2022129953, Example 6]	5.30
CCNC(=O)C(=O)C(C[C@@H]1CCNC1=O)NC(=O)[C@H](CC1CC1)NC(=O)/C=C/c1ccc(Cl)cc1F (stereo partly specified) [WO2022129953, Example 19]	7.89
CCNC(=O)C(=O)C(C[C@@H]1CCNC1=O)NC(=O)[C@H](CC(C)(C)C)NC(=O)/C=C/c1ccc(Cl)cc1Cl (stereo partly specified) [WO2022129953, Example 26]	8.00
CCNC(=O)C(=O)C(C[C@@H]1CCNC1=O)NC(=O)[C@H](CC1CC1)NC(=O)/C=C/c1ccc(Cl)cc1Cl (stereo partly specified) [WO2022129953, Example 24]	7.89
NC(=O)/C(=N\O)C(C[C@@H]1CCNC1=O)NC(=O)[C@H](CC1CC1)NC(=O)/C=C/c1ccccc1 (stereo partly specified) [WO2022129953, Example 4]	6.00
CC(C)(C)C[C@H](NC(=O)C[C@H](c1ccccc1)C(F)(F)F)C(=O)NC(C[C@@H]1CCNC1=O)C(=O)C(=O)NC1CC1 (stereo partly specified) [WO2022129953, Example 17]	7.89
CC[C@@H](CC(=O)N[C@@H](CC(C)(C)C)C(=O)NC(C[C@@H]1CCNC1=O)C(=O)C(=O)NC1CC1)c1ccccc1 (stereo partly specified) [WO2022129953, Example 14]	8.10
O=C(CCc1ccc(Cl)cc1Cl)N[C@@H](CC1CC1)C(=O)NC(C[C@@H]1CCNC1=O)C(=O)C(=O)NC1CC1 (stereo partly specified) [WO2022129953, Example 30]	7.70
CC(C)(C)C[C@H](NC(=O)/C=C/c1ccc(Cl)cc1Cl)C(=O)NC(C[C@@H]1CCNC1=O)C(=O)C(N)=O (stereo partly specified) [WO2022129953, Example 27]	8.10
O=C(/C=C/c1ccc(Cl)cc1F)N[C@@H](CC1CC1)C(=O)NC(C[C@@H]1CCNC1=O)C(=O)C(=O)NC1CC1 (stereo partly specified) [WO2022129953, Example 21]	8.10 and 7.80
CC(C)(C)C[C@H](NC(=O)/C=C/c1ccc(Cl)cc1Cl)C(=O)NC(C[C@@H]1CCNC1=O)C(=O)C(=O)NC1CC1 (stereo partly specified) [WO2022129953, Example 10]	8.20
CC(C)C[C@H](NC(=O)/C=C/c1ccc(Cl)cc1F)C(=O)NC(C[C@@H]1CCNC1=O)C(=O)C(N)=O (stereo partly specified) [WO2022129953, Example 18]	7.89
